Experimental data reported in US9902736B2, “1-oxo/acylation-14-acylated oridonin derivative, preparation method therefor and application thereof” (HANGZHOU BENSHENG PHARMACEUTICAL CO., LTD., priority 2012, dated 2018).
Values after ≈ are worked out from the molar mass of the structure shown.

How the values were obtained:
H9 = assay: Leukemia cell growth inhibition, MTT, 72 h; format: cell-based, human; conditions: Homo sapiens, H9; 72 h, MTT
Excerpt: (§1) Leukemia cell lines: leukemia cell lines: K562/adr (drug-resistant, chronic myeloid leukemia, CML), NB4 (acute promyelocytic leukemia, AML), Kasumi-1 (acute myeloid leukemia M2 type, AML-M2), Jurkat (acute lymphoblastic leukemia, ALL), all of which were donated by Cancer Research Institute of Zhejiang University, China; and H9 (acute lymphoblastic leukemia, ALL), which was purchased from China Center for Type Culture Collection.
(§2) 6000 well-growing leukemia cells were obtained and inoculated into wells of a 96-well cell culture plate. […] On the next day, the 1-oxo/acylated-14-acylated oridonin derivatives of different concentrations were added and mixed uniformly. The plate was placed in a carbon dioxide cell incubator (5% CO2) at 37° C. and was incubated for 72 hours. Then the viable cell concentration was determined by MTT method.

Jurkat = assay: Leukemia cell growth inhibition, MTT, 72 h; format: cell-based, human; conditions: Homo sapiens, Jurkat; 72 h, MTT
Excerpt: as §1, §2

NB4 = assay: Leukemia cell growth inhibition, MTT, 72 h; format: cell-based, human; conditions: Homo sapiens, NB-4; 72 h, MTT
Excerpt: as §1, §2

Hep-2 = assay: Solid tumor cell growth inhibition, MTT, 72 h; format: cell-based, human; conditions: Homo sapiens, HEp-2; 72 h, MTT
Description: (§3) 6000 well-growing human solid tumor cells were obtained and inoculated into wells of a 96-well cell culture plate. The culture medium was DMEM High Glucose cell culture medium containing 10% fetal bovine serum. The plate was placed in a carbon dioxide cell incubator (5% CO2) at 37° C. and incubated for 24 hours. After added with 1-oxo/acylated-14-acylated oridonin derivatives of different concentration and mixed uniformly, the plate was placed in a carbon dioxide cell incubator (5% CO2) at 37° C. and incubated for 72 hours. Then the viable cell concentration was determined by MTT method.

MGC-803 = assay: Solid tumor cell growth inhibition, MTT, 72 h; format: cell-based, human; conditions: Homo sapiens, MGC-803; 72 h, MTT
Description: as §3

CNE = assay: Solid tumor cell growth inhibition, MTT, 72 h; format: cell-based, human; conditions: Homo sapiens, CNE; 72 h, MTT
Description: as §3

Hela = assay: Solid tumor cell growth inhibition, MTT, 72 h; format: cell-based, human; conditions: Homo sapiens, HeLa; 72 h, MTT
Description: as §3

RPMI 8226 = assay: Multiple myeloma cell growth inhibition, MTT, 72 h; format: cell-based; conditions: Homo sapiens
Description: Multiple myeloma cell lines: RPMI8226 (multiple myeloma), purchased from Fuxiang Bio-tech Co. Ltd., Shanghai, China.
as §2, with “well-growing” for “well-growing leukemia”, “and” for “and was”

Kasumi-1 = assay: Leukemia cell growth inhibition, MTT, 72 h; format: cell-based; conditions: Homo sapiens
Excerpt: as §1, §2

K562/ADR = assay: Leukemia cell growth inhibition, MTT, 72 h; format: cell-based; conditions: Homo sapiens
Excerpt: as §1, §2

SK-OV-3 = assay: Solid tumor cell growth inhibition, MTT, 72 h; format: cell-based; conditions: Homo sapiens, SK-OV-3, 72 h, MTT; for IC50: read-out: IC50 SK-OV-3; for IC90: read-out: IC90 SK-OV-3
Description: as §3

PC-3 = assay: Solid tumor cell growth inhibition, MTT, 72 h; format: cell-based; conditions: Homo sapiens
Description: as §3

RKO = assay: Solid tumor cell growth inhibition, MTT, 72 h; format: cell-based; conditions: Homo sapiens
Description: as §3

CaEs-17 = assay: Solid tumor cell growth inhibition, MTT, 72 h; format: cell-based; conditions: Homo sapiens, CaEs17
Description: as §3

A549 = assay: Solid tumor cell growth inhibition, MTT, 72 h; format: cell-based; conditions: Homo sapiens
Description: as §3

MG-63 = assay: Solid tumor cell growth inhibition, MTT, 72 h; format: cell-based; conditions: Homo sapiens
Description: as §3

Hep G2 = assay: Solid tumor cell growth inhibition, MTT, 72 h; format: cell-based; conditions: Homo sapiens, HepG2
Description: as §3

U87-MG = assay: Solid tumor cell growth inhibition, MTT, 72 h; format: cell-based; conditions: Homo sapiens, U-87 MG
Description: as §3

Becap-37 = assay: Solid tumor cell growth inhibition, MTT, 72 h; format: cell-based; conditions: Homo sapiens
Description: as §3

PANC-1 = assay: Solid tumor cell growth inhibition, MTT, 72 h; format: cell-based; conditions: Homo sapiens
Description: as §3

IC50 (H9) [µg/mL]	IC90 (H9) [µg/mL]	IC50 (Jurkat) [µg/mL]	IC90 (Jurkat) [µg/mL]	IC50 (NB4) [µg/mL]	IC90 (NB4) [µg/mL]	IC50 (Hep-2) [µg/mL]	IC90 (Hep-2) [µg/mL]	IC50 (MGC-803) [µg/mL]	IC90 (MGC-803) [µg/mL]	IC50 (CNE) [µg/mL]	IC90 (CNE) [µg/mL]	IC50 (Hela) [µg/mL]	IC90 (Hela) [µg/mL]	IC50 (RPMI 8226) [µg/mL]	IC90 (RPMI 8226) [µg/mL]	IC50 (Kasumi-1) [µg/mL]	IC90 (Kasumi-1) [µg/mL]	IC50 (K562/ADR) [µg/mL]	IC90 (K562/ADR) [µg/mL]	SMILES	other results
1.64 (≈ 2.49 µM)	3.46 (≈ 5.25 µM)	1.16 (≈ 1.76 µM)	4.4 (≈ 6.68 µM)	0.35 (≈ 0.531 µM)	1.66 (≈ 2.52 µM)	3.58 (≈ 5.43 µM)	15.3 (≈ 23.2 µM)	3.18 (≈ 4.83 µM)	6.35 (≈ 9.64 µM)	2.95 (≈ 4.48 µM)	8.76 (≈ 13.3 µM)	3.41 (≈ 5.18 µM)	10.1 (≈ 15.3 µM)	1.7 (≈ 2.58 µM)	3.73 (≈ 5.66 µM)	1.41 (≈ 2.14 µM)	3.19 (≈ 4.84 µM)	1.32 (≈ 2 µM)	3.6 (≈ 5.47 µM)	C=C1C(=O)[C@]23[C@H](OC(=O)C4CCN(S(=O)(=O)c5cccc([N+](=O)[O-])c5)CC4)[C@H]1CC[C@H]2[C@@]12CO[C@@]3(O)[C@@H](O)[C@@H]1C(C)(C)CCC2=O [BS-OR-037]	IC50 (SK-OV-3): 3.48 µg/mL (≈ 5.28 µM); IC90 (SK-OV-3): 7.08 µg/mL (≈ 10.7 µM); IC50 (PC-3): 3.48 µg/mL (≈ 5.28 µM); IC90 (PC-3): 7.08 µg/mL (≈ 10.7 µM); IC50 (RKO): 0.91 µg/mL (≈ 1.38 µM); IC90 (RKO): 1.84 µg/mL (≈ 2.79 µM); IC50 (CaEs-17): 3.07 µg/mL (≈ 4.66 µM); IC90 (CaEs-17): 11.2 µg/mL (≈ 16.9 µM); IC50 (A549): 5.72 µg/mL (≈ 8.68 µM); IC90 (A549): 10.1 µg/mL (≈ 15.4 µM); IC50 (MG-63): 1.2 µg/mL (≈ 1.82 µM); IC90 (MG-63): 3.1 µg/mL (≈ 4.71 µM); IC50 (Hep G2): 3.33 µg/mL (≈ 5.06 µM); IC90 (Hep G2): > 16 µg/mL; IC50 (U87-MG): 1.86 µg/mL (≈ 2.82 µM); IC90 (U87-MG): 4.68 µg/mL (≈ 7.1 µM); IC50 (Becap-37): 2.75 µg/mL (≈ 4.17 µM); IC90 (Becap-37): 7.47 µg/mL (≈ 11.3 µM); IC50 (PANC-1): 4.98 µg/mL (≈ 7.56 µM); IC90 (PANC-1): 11.1 µg/mL (≈ 16.8 µM)
1.42 (≈ 2.51 µM)	3.01 (≈ 5.32 µM)	1.36 (≈ 2.4 µM)	5.91 (≈ 10.4 µM)	0.44 (≈ 0.778 µM)	2.63 (≈ 4.65 µM)	4.34 (≈ 7.67 µM)	13.9 (≈ 24.6 µM)	3.36 (≈ 5.94 µM)	9.55 (≈ 16.9 µM)	3.29 (≈ 5.82 µM)	10.9 (≈ 19.2 µM)	3.01 (≈ 5.32 µM)	6.16 (≈ 10.9 µM)	0.97 (≈ 1.71 µM)	3.58 (≈ 6.33 µM)	1.1 (≈ 1.94 µM)	3.95 (≈ 6.98 µM)	1.43 (≈ 2.53 µM)	3.92 (≈ 6.93 µM)	C=C1C(=O)[C@]23[C@H](OC(=O)C4CCN(S(=O)(=O)CC)CC4)[C@H]1CC[C@H]2[C@@]12CO[C@@]3(O)[C@@H](O)[C@@H]1C(C)(C)CCC2=O [BS-OR-038]	IC50 (SK-OV-3): 5.3 µg/mL (≈ 9.37 µM); IC90 (SK-OV-3): 11.6 µg/mL (≈ 20.5 µM); IC50 (PC-3): 5.3 µg/mL (≈ 9.37 µM); IC90 (PC-3): 11.6 µg/mL (≈ 20.5 µM); IC50 (RKO): 1.01 µg/mL (≈ 1.79 µM); IC90 (RKO): 1.93 µg/mL (≈ 3.41 µM); IC50 (CaEs-17): 2.18 µg/mL (≈ 3.85 µM); IC90 (CaEs-17): 7.64 µg/mL (≈ 13.5 µM); IC50 (A549): 6.1 µg/mL (≈ 10.8 µM); IC90 (A549): 10.2 µg/mL (≈ 18 µM); IC50 (MG-63): 0.95 µg/mL (≈ 1.68 µM); IC90 (MG-63): 4.89 µg/mL (≈ 8.64 µM); IC50 (Hep G2): 3.37 µg/mL (≈ 5.96 µM); IC90 (Hep G2): 13.2 µg/mL (≈ 23.3 µM); IC50 (U87-MG): 1.98 µg/mL (≈ 3.5 µM); IC90 (U87-MG): 6.78 µg/mL (≈ 12 µM); IC50 (Becap-37): 3.04 µg/mL (≈ 5.37 µM); IC90 (Becap-37): 7.59 µg/mL (≈ 13.4 µM); IC50 (PANC-1): 4.7 µg/mL (≈ 8.31 µM); IC90 (PANC-1): 11.4 µg/mL (≈ 20.1 µM)
0.56 (≈ 0.945 µM)	1.54 (≈ 2.6 µM)	0.89 (≈ 1.5 µM)	4.13 (≈ 6.97 µM)	0.31 (≈ 0.523 µM)	0.99 (≈ 1.67 µM)	3.13 (≈ 5.28 µM)	15.5 (≈ 26.2 µM)	1.26 (≈ 2.13 µM)	5.57 (≈ 9.4 µM)	1.52 (≈ 2.56 µM)	4.42 (≈ 7.46 µM)	1.92 (≈ 3.24 µM)	4.95 (≈ 8.35 µM)	0.85 (≈ 1.43 µM)	2.92 (≈ 4.93 µM)	1.09 (≈ 1.84 µM)	2.59 (≈ 4.37 µM)	0.58 (≈ 0.979 µM)	1.94 (≈ 3.27 µM)	C=C1C(=O)[C@]23[C@H](OC(=O)C4CCC(NC(=O)c5ccccn5)CC4)[C@H]1CC[C@H]2[C@@]12CO[C@@]3(O)[C@@H](O)[C@@H]1C(C)(C)CCC2=O (stereo partly drawn) [BS-OR-083]	IC50 (SK-OV-3): 3.16 µg/mL (≈ 5.33 µM); IC90 (SK-OV-3): 6.8 µg/mL (≈ 11.5 µM); IC50 (PC-3): 3.16 µg/mL (≈ 5.33 µM); IC90 (PC-3): 6.8 µg/mL (≈ 11.5 µM); IC50 (RKO): 0.68 µg/mL (≈ 1.15 µM); IC90 (RKO): 1.68 µg/mL (≈ 2.83 µM); IC50 (CaEs-17): 1.71 µg/mL (≈ 2.89 µM); IC90 (CaEs-17): 10.2 µg/mL (≈ 17.2 µM); IC50 (A549): 5.07 µg/mL (≈ 8.55 µM); IC90 (A549): 11.3 µg/mL (≈ 19.1 µM); IC50 (MG-63): 0.76 µg/mL (≈ 1.28 µM); IC90 (MG-63): 1.7 µg/mL (≈ 2.87 µM); IC50 (Hep G2): 2.83 µg/mL (≈ 4.77 µM); IC90 (Hep G2): 11.9 µg/mL (≈ 20.1 µM); IC50 (U87-MG): 1.29 µg/mL (≈ 2.18 µM); IC90 (U87-MG): 4.61 µg/mL (≈ 7.78 µM); IC50 (Becap-37): 2.21 µg/mL (≈ 3.73 µM); IC90 (Becap-37): 6.5 µg/mL (≈ 11 µM); IC50 (PANC-1): 3.14 µg/mL (≈ 5.3 µM); IC90 (PANC-1): 9.16 µg/mL (≈ 15.5 µM)
